According to US8716231B2, “Use of benzo-fused heterocycle sulfamide derivatives for the treatment of pain” (Janssen Pharmaceutica NV, priority 2005, dated 2014):
Several values for one entry are separate records, joined by “and”; a condition that tells them apart may be missing. Identical values can stand only once. Entries after “also recorded” stand apart in the source; their conditions may differ.

Columns and labels:
[1] = system: Taxol®-induced mechanical allodynia; assay: Taxol Induced Peripheral Neuropathy Model (pilot), Von Frey testing; format: in vivo, Sprague-Dawley rats; conditions: 100 mg/kg po daily for 12 days with Taxol 2 mg/kg i.p. days 1, 3, 5, 7; Day 12
Procedure: In addition, the compound's effects on spontaneous locomotor activity was measured.
The animals were housed in polycarbonate plastic cages, 2 animals per cage, at a temperature of 18-26° C., 30-70% humidity, 12-hour light/dark cycle, with food and water available ad libityum.
On days 1, 3, 5, and 7, the rats received an ip (intraperitoneal) injection of Taxol® (2 mg/kg).
Two behavioral tests were performed: measurement of tactile sensitivity and spontaneous locomotor activity. At baseline and on Days 5 and 12 post-Taxol® injection, the animals underwent Von Frey testing for mechanical allodynia (according to the procedure as described in Chaplan, S R, Bach, F W, Pogrel, J W, Chung, J M, Yaksh, T L. Quantitative assessment of tactile allodynia in the rat paw. J Neurosci Meth, 53:55-63, 1994). Tactile sensitivity (i.e. mechanical allodynia) was measured using calibrated filaments touched to the plantar surface of the affected limb to determine paw withdrawal threshold. Briefly, the rats were placed in a Plexiglas cage with a wire mesh bottom and allowed to acclimate for 10 minutes. Once the animals settled, the plantar surface of the right hind paw was touched with a 2.0 g von Frey filament. […] Data were analyzed using two-way ANOVA, one-way ANOVA and Dunnett's test, with statistical significance at p<0.05.

[2] = system: formalin-induced hyperalgesia (paw licking); assay: Formalin-Induced Hyperalgesia Model; format: in vivo, CF-1 mice; conditions: Mus musculus; i.p., 2 hours before formalin; 95% CI range 53.6-225 mg/kg; read-out: median effective dose (ED50) for a 50% or greater reduction in AUC, secondary phase (phase 2, inflammatory)
Procedure: Adult male CF-1 mice weighing 2-0 g were obtained from Charles River (Wilmington, Mass.). All animals were house on a 12:12 light:dark cycle and permitted free access to both food and water, except when removed from the home cage for experimental procedures.
In this model, the injection of formalin elicits a distinct biphasic behavioral profile characterized by the mouse licking the affected paw. Immediately after the injection, the mouse licks the paw for about 10 minutes. This corresponds to phase 1 (acute response) and is followed by a brief latency period where there is little behavioral activity. A more prolonged period of about 20-30 minutes of paw licking ensues which constitutes phase 2 (inflammatory).
Two hours after administration, formalin was injected sub-dermally (20 μL, 27 gauge needle) into the plantar surface of the right hind foot. The bevel of the needle was placed facing down toward the skin surface. […] The cumulative length of licking for each 2 minute period was recorded. […] Animals were euthanized following the conclusion of the experiment.
Area under the curve (AUC) determinations were made using the GraphPad Prism Version 3.03. Total AUC was calculated for both the dosed and control groups for both acute and inflammatory phases. The AUC of individual animals for each phase was also calculated and converted to a percentage of total AUC of control.

[3] = system: mechanical (tactile) allodynia after L5 nerve ligation; assay: Rat Chung Model of Neuropathic Pain (Example 14); format: in vivo, Sprague Dawley rats
Description: The rat Chung model is an assay used in determining whether a compound is useful for the treatment of neuropathic pain (Kim and Chung, 1994; Chaplan et al., 1994).
In this study, male Sprague Dawley rats (145-165 g; Harlan) were anesthetized and the L5 nerve was isolated and ligated with silk suture material resulting in mechanical allodynia. […] The results were normalized and results are presented as % MPE ([…]) of the drug.

[4] = system: tactile allodynia in L5 SNL rats (von Frey withdrawal threshold); assay: Lumbar 5 (L5) Spinal Nerve Ligation (Chung) Model of Neuropathic Pain, Studies A-D; format: in vivo, Sprague-Dawley rats; conditions: for withdrawal thresholds: 2 hrs, 4 hrs and 6 hrs after oral administration
Description: The rat Chung model is an assay used in determining whether a compound is useful for the treatment of neuropathic pain (Kim and Chung, 1994; Chaplan et al., 1994). In this assay, injury to the sciatic nerve by loose ligation with chromic gut suture, tight ligation of the L5 spinal nerve with silk suture or partial tight ligation with silk suture each produces hypersensitivity to many stimulus modalities (e.g., touch, pressure, temperature) that lasts for weeks or months. Hypersensitivity produced by such injuries is reminiscent of allodynia and hyperalgesia observed in clinical conditions of neuropathic pain caused by mechanical nerve injury, diabetes and chemotherapy. This assay is predictive of analgesic, antiallodynic and/or antihyperalgesic effect of test compounds.
Test compound and controls were dissolved in the appropriate volume of 0.5% HPMC or 10% solutol in 0.5% hydoxypropyl methylcellulose (HPMC). HPMC served as the vehicle for preparation of gabapentin solutions used as the positive control. Solutions were prepared to provide the final dose in a volume of 2.5 mL/kg or 5 mL/kg p.o. for rats. Male, Sprague-Dawley rats from Harlan Industries (Indianapolis, Ind.), weighing 150 to 250 grams at the time of surgery, were used for L5 SNL studies.
Rats in the SNL studies were housed and tested in the same room. Animals were housed in micro-isolator cages in groups of four rats per cage or 5 mice per cage with corncob bedding and free access to food and water. The environment was maintained at a constant temperature of 21° C., with a 12-hour light/dark cycle. Rats undergoing L5 SNL surgery were placed into individual housing cages with alpha dry bedding and had access to enrichment food, food pellets and water ad libitum. Animals were allowed four to six weeks recovery from surgery prior to testing and were not tested beyond eight weeks post-surgery. For L5 SNL testing, only those animals that responded to less than 4 gr force were included in further testing and analysis, being randomized into treatment groups on the day of study. In all tests, the investigator performing the behavioral analysis was blinded to the treatment administered to any individual animal.
For L5 SNL surgery, rats were induced and maintained on isoflurane inhalation anesthesia. A 2-cm skin incision was made just left of midline over the dorsal aspect of the L4-S2 spinal segments, followed by separation of the paraspinal muscles from spinous processes. The transverse process of L6 was then carefully removed and the L5 spinal nerve was identified. The left L5 spinal nerve was then ligated tightly with 6-0 silk thread, the muscle was sutured with 4-0 vicryl, and the skin was closed with wound clips.
Behavioral testing was performed on L5SNL rats at a time between 3-6 weeks post-ligation. […] Tactile allodynia was quantified at 30 min, 1 hr, 2 hrs, 4 hrs, 6 hrs, 8 hrs and/or 24 hr post-dosing by recording the force at which the paw ipsilateral to the nerve ligation was withdrawn from the application of a series of calibrated von Frey filaments (0.4, 0.7, 1.2, 2.0, 3.6, 5.5, 8.5 and 15.1 g; Stoelting; Wood Dale, Ill.). Beginning at an intermediate stiffness (2.0 g), filaments were applied to the mid-plantar hind paw for approximately 5 seconds. A brisk paw withdrawal led to the presentation of the next lighter stimulus and the lack of a withdrawal response led to the presentation of the next stronger stimulus to determine the response threshold. A total of four responses after the first threshold detection were collected. The 50% withdrawal thresholds were interpolated by the method of Dixon (as described in Meert T F and Vermeirsch, H A, Pharmacol. Biochem. Behav.; 2005, 80(2), pp 309-326) and when response thresholds fell above or below the range of detection, respective values of 15.0 or 0.25 g were assigned. […]

For `NS(=O)(=O)NC[C@H]1COc2cc(Cl)ccc2O1` [Compound #8, (2S)-(−)-N-(6-Chloro-2,3-dihydro-benzo[1,4]dioxin-2-ylmethyl)-sulfamide], which “effect on Taxol-induced mechanical allodynia” value [1] is on record?
Its value is “appeared to potentiate the pain response compared to Taxol® alone; however, this difference was not statistically significant; also recorded: ineffective in preventing the allodynia”.

What about the ED50 [2] of the same molecule?
Its ED50 is 101 mg/kg.

What about the “time at which efficacy peaked” value ([3]; 120 mg/kg p.o.) of the same molecule?
Its value is 1 h.

And the “time at which efficacy was observed” value ([3]; 120 mg/kg p.o.)?
The value was 30 min.

What about the “time post-dosing at which efficacy was sustained” value ([3]; 120 mg/kg p.o.) of the same molecule?
The value was 4 h.

What about the “time at which efficacy peaked” value ([3]; 240 mg/kg, po) of the same molecule?
Its value is 2 to 4 h.

And the “time at which efficacy was observed” value ([3]; 240 mg/kg, po)?
The value was 30 min.

And the “time post-dosing at which efficacy was sustained” value ([3]; 240 mg/kg, po)?
Its value is 24 h.

What about the “% reversal (withdrawal threshold)” value ([4]; Study A, 120 mg/kg oral, 1 hr) of the same molecule?
The value was 42.2±13.8%.

And the “% reversal (withdrawal threshold)” value ([4]; Study A, 120 mg/kg oral, 4 hrs)?
The value was 45.4±12.2%.

And the “% change (withdrawal threshold)” value ([4]; Study A, 240 mg/kg, 4 hr)?
Its value is 65.6±21.1%.

What about the withdrawal thresholds ([4]; Study A) of the same molecule?
Its withdrawal thresholds is “significantly increased withdrawal thresholds”.

What about the “reversal in tactile hypersensitivity, peak effect” value ([4]; Study B, first administration (Day 1), 480 mg/kg, 4 hrs after dosing, three weeks after surgery) of the same molecule?
Its value is 64.3±9.9%.

What about the “reversal in tactile hypersensitivity” value ([4]; Study B, first administration, other treatment groups (60, 120, 240 mg/kg)) of the same molecule?
The value was “No significant differences were observed”.

What about the “reversal of tactile hypersensitivity” value ([4]; Study B, third and seventh day of daily dosing, 60-480 mg/kg) of the same molecule?
The value was “none of the treatment groups exhibited a significant reversal of tactile hypersensitivity”.

What about the “effect on mechanical allodynia” value ([4]; Study C, 100 mg/kg, 300 mg/kg or 560 mg/kg, p.o., 4 weeks after surgery) of the same molecule?
Its value is “did not show a statistically significant effect up to 6 hrs”.

And the “decrease in mechanical allodynia” value ([4]; Study D, 560 mg/kg p.o. in 10% solutol in HPMC, four weeks after surgery)?
The value was “showed a decrease in mechanical allodynia at 4 hrs and 6 hrs post dosing, but with a p=0.054”.

Which “effect of positive control on mechanical allodynia” value ([3]; 480 mg/kg p.o.) does the source give for `NCC1(CC(=O)O)CCCCC1` [gabapentin, reference compound] here?
Its value is “equivalent to the activity measured for Compound #8 at 240 mg/kg dosing”.

What about the “% reversal (withdrawal threshold)” value ([4]; Study A, 480 mg/kg, 2 hrs post-dosing, six weeks after surgery) of the same molecule?
The value was 73.2±14.7%.

What about the “% reversal (withdrawal threshold)” value ([4]; Study A, 480 mg/kg, 4 hrs post-dosing, six weeks after surgery, 480 mg/kg) of the same molecule?
Its value is 73.7±16.6% and 73.4±15.2%.

And the withdrawal thresholds ([4]; Study A)?
The withdrawal thresholds was “significantly increased withdrawal thresholds”.

What about the “% reversal of mechanical allodynia relative to baseline” value ([4]; Study C, 560 mg/kg, 2 hrs post dosing) of the same molecule?
Its value is 58.7%.

And the “% reversal of mechanical allodynia relative to baseline” value ([4]; Study C, 560 mg/kg, 4 hrs post dosing)?
The value was 86.4%.

What about the “decrease in mechanical allodynia relative to baseline” value ([4]; Study C, 560 mg/kg, 6 hrs post dosing) of the same molecule?
The value was “not at 6 hrs post dosing”.
